Test results from article PMC8037406, “Symbiotic NCR Peptide Fragments Affect the Viability, Morphology and Biofilm Formation of Candida Species” (International Journal of Molecular Sciences, 2021).
Where two headings read alike, the source gives them in different places. Where a SMILES comes first, the peptide text is derived from it.

What was measured:
[1] = test system: C. albicans SZMC 1458 biofilm; test: Biofilm formation assay, XTT; type: cell-based, Candida albicans; conditions: 72 h, 37 °C, 5 % CO2, 1/8AIM medium, p ≤ 0.0001
[2] = test system: C. albicans ATCC 10231; test: Yeast-hypha morphology, bright-field microscopy; type: cell-based, Candida albicans; conditions: 3.12 µM peptide, 48 h, 1/8AIM medium, sub-lethal concentration
Excerpt: (§1) As hyphae formation is an important virulence factor, we investigated how the broad range activity peptides, NCR335C17–33, NCR169C17–38 and NCR169C17–38ox affect the morphological switch of C. albicans ATCC 10231 and C. tropicalis between the hyphal and yeast growth forms at sub-lethal concentrations (Figure 1). […] However, not only the morphology changed, but the cell number also declined, particularly in the latter case.
(§2) To induce morphological change of C. albicans and C. tropicalis YNB medium was changed for eight-fold diluted AIM-V+AlbuMAX (BSA) medium (Gibco, Thermo Fisher Scientific, Dublin, Ireland) referred to as 1/8AIM in the text.
(§3) Bright-field microscopy. The morphology of C. albicans ATCC 10231 and C. tropicalis cells was examined after 48 h incubation with the selected peptides (NCR335C17–33 and NCR169C17–38) by Zeiss Axio Observer inverted microscope (Carl Zeiss AG, Jena, Germany). The concentration of the NCR335C17–33 was 1.56 and 3.12 µM, NCR169C17–38 1.56 or 3.12 µM while NCR169C17–38ox 0.78 or 3.12 µM, the initial cell concentration was set to 4 × 10^4 cell/mL. Cells cultivated without peptides were used as control.

[3] = test system: C. auris; conditions: for reduction of MIC in the synergistic combination: compared with single use
Description: Amphotericin B, due to its high toxicity was not included in this assay.
The effects of the different combinations of fluconazole and NCR335C17–33, NCR169C17–38 or NCR169C17–38ox were determined by standard checkerboard titration method. The fluconazole was tested in a concentration range from 6.25 to 75 µM, NCR169C17–38 and NCR169C17–38ox from 0.78 to 12.50 µM, NCR335C17–33 from 1.56 to 25 µM. The initial cell concentration in each well was 4 × 10^4 cell/mL. After the incubation for 72 h at 30 °C, the optical density of the cultures was detected at 620 nm in SPECTROstar Nano plate reader (BMG LabTech, Offenburg, Germany). The inhibitory concentrations were determined for each compound alone and in combinations. The experiments were carried out at least three times. The effect of combinations was evaluated by fractional inhibitory concentration (FIC) index. FIC = FICA + FICB. FICA = (MICA in combination)/(MICA alone); FICB = (MICB in combination)/(MICB alone)

[4] = test system: C. albicans ATCC 10231 biofilm; test: Biofilm formation assay, XTT; type: cell-based, Candida albicans; conditions: 72 h, 37 °C, 5 % CO2, 1/8AIM medium, p ≤ 0.0001
[5] = test system: C. albicans SC 5314 biofilm; test: Biofilm formation assay, XTT; type: cell-based, Candida albicans; conditions: 72 h, 37 °C, 5 % CO2, 1/8AIM medium, p ≤ 0.0001
[6] = test system: C. tropicalis CBS 94; test: Yeast-hypha morphology, bright-field microscopy; type: cell-based, Candida tropicalis; conditions: 1.56 µM peptide, 48 h, 1/8AIM medium
Excerpt: as §1, §2, §3

[7] = test system: C. albicans ATCC 10231 biofilm; test: Morphology of biofilm-located cells, scanning electron microscopy; type: cell-based, Candida albicans; conditions: SEM, 72 h, 37 °C, sub-lethal concentrations
[8] = test system: C. tropicalis CBS 94 biofilm; test: as above; type: cell-based, Candida tropicalis; conditions: SEM, 72 h, 37 °C, 1.56 µM peptide
[9] = test system: Candida cells; test: Fungicide effect, spotting of treated cells on solid YPD medium; type: cell-based, Candida species; conditions: 1.56–25 µM, 24 h treatment, dilutions spotted on solid YPD medium, 48 h, 30 °C
Description: To determine whether the inhibitory effect of the peptides is generated by fungistatic or fungicide action, the Candida cells were treated with the peptides in the same concentration range (1.56–25 µM) as in the growth inhibition assay. After 24 h 5 µL sample from the untreated control cells and from the peptide treated cells was added to 95 µL water and diluted further 10- and 100-fold. From each dilution, 5 µL was placed on solid medium and the growth of the control and peptide treated cells was compared after 48 h incubation at 30 °C. This assay confirmed that all the effective peptides, NCR335N1–19, NCR335N7–21, NCR335C1–33, NCR335C13–33, NCR335C17–33, NCR169C17–38, NCR169C17–38ox, NCR169C17–38W10,20/A provoked growth inhibition through fungicidal actions (Figure A2). The fungicide concentrations, required for the complete elimination of the Candida cells, were either equal to or twice higher than the minimum inhibitory concentrations presented in Table 2.
The same initial experimental setting was used to determine the fungicide effect of the peptides. Five µL samples were taken from the cultures after 24 h and were added to 95 µL sterile distilled water, and diluted to 10- and 100-fold (indicated as 10^4, 10^3 and 10^2 based on the cell number of the control culture in Figure A2). Five µL from each dilution were placed on solid YPD medium and the growth of the strains was detected after 48 h incubation at 30 °C.

[10] = test system: C. tropicalis CBS 94 biofilm; test: Biofilm formation assay, XTT; type: cell-based, Candida tropicalis; conditions: 72 h, 37 °C, 5 % CO2, 1/8AIM medium, p ≤ 0.0001
[11] = test system: Candida parapsilosis CBS 604; test: microbe, parasite or virus in culture; type: cell-based; conditions: micro-dilution, YNB medium, 4 × 10^4 cell/mL, 48 h, 30 °C, OD 620 nm; MIC = growth inhibition ≥90%; peptides 25 to 1.56 µM, fluconazole 200 to 0.78 µM; three biological repeats in triplicates; note: key: -: no growth inhibition was observed
Description: (§4) The antifungal activity of all the 14 peptides was tested against the following opportunistic human pathogen Candida species and strains: C. albicans strains ATCC 10231, SC 5314 and SZMC 1458, C. auris 0381, C. glabrata CBS 138, C. parapsilosis CBS 604 and C. tropicalis CBS 94.
(§5) All the Candida strains (Table 4) were grown overnight in YPD medium (1% pepton, 1% dextrose, 0.5% yeast extract) at 30 °C in water bath shaker prior to each experiments. The cells were harvested by centrifugation (5 min, 3000× g) washed twice with sterile distilled water and suspended in 5-fold diluted Difco Yeast Nitrogen Base w/o Amino Acids medium (Becton, Dickinson and Company, Sparks, MD, USA) supplemented with 1% dextrose, referred to as YNB medium in the text. Cells were counted in Bürker chamber and diluted to the proper concentration.
(§6) The growth inhibition of the peptides listed in Table 1 was tested in 96-well microtiter plates on Candida strains. The minimal inhibitory concentration (MIC) was determined with the micro-dilution method by adding 5 µL serially two-fold-diluted peptide solution to 95 µL of cell suspension (4 × 10^4 cell/mL) in YNB medium. After 48 h of incubation at 30 °C the optical density of the cultures was measured at 620 nm in SPECTROstar Nano plate reader (BMG LabTech, Offenburg, Germany). Minimal inhibitory concentration was defined as growth inhibition ≥90% compared to 100% growth of the untreated control. The experiments were carried out in three biological repeats always in triplicates.

[12] = test system: Candida auris 0381; test: microbe, parasite or virus in culture; type: cell-based; conditions: micro-dilution, YNB medium, 4 × 10^4 cell/mL, 48 h, 30 °C, OD 620 nm; MIC = growth inhibition ≥90%; peptides 25 to 1.56 µM, fluconazole 200 to 0.78 µM; three biological repeats in triplicates; note: key: -: no growth inhibition was observed
Description: as §4, §5, §6

[13] = NCR169C17–38 + NCR169C17–38ox, C. auris
[14] = NCR169C17–38 + NCR335C17–33, C. auris
[15] = checkerboard, C. auris, 72 h, 30 °C, drug A fluconazole + drug B NCR169C17–38

| Compound | concentration significantly inhibiting biofilm formation, relative to MIC [1] | effect on hyphal growth [2] | Action [3, 14] | concentration significantly inhibiting biofilm formation, relative to MIC [4] | concentration significantly inhibiting biofilm formation, relative to MIC [5] | effect on hyphal/yeast growth form [6] | morphology of cells in the biofilm [7] | morphology of cells in the biofilm [8] | growth inhibition by fungistatic or fungicide action [9] | concentration significantly inhibiting biofilm formation, relative to MIC [10] | other results |
| --- | --- | --- | --- | --- | --- | --- | --- | --- | --- | --- | --- |
| CC[C@H](C)[C@H](NC(=O)[C@H](CCCCN)NC(=O)[C@H](Cc1ccccc1)NC(=O)[C@H](CC(C)C)NC(=O)[C@@H]1CCCN1C(=O)[C@H](CCCCN)NC(=O)[C@H](CCCCN)NC(=O)[C@H](CO)NC(=O)[C@@H](N)CCCCN)C(=O)N[C@@H](Cc1c[nH]c2ccccc12)C(=O)N[C@@H](CCCCN)C(=O)N[C@@H](CS)C(=O)N[C@H](C(=O)N[C@@H](CCC(=O)O)C(=O)N[C@@H](CC(N)=O)C(=O)N[C@H](C(=O)N[C@@H](CS)C(=O)N[C@H](C(=O)N[C@@H](CC(C)C)C(=O)N[C@@H](Cc1c[nH]c2ccccc12)C(=O)N[C@@H](Cc1ccc(O)cc1)C(=O)N[C@@H](CCCCN)C(N)=O)C(C)C)C(C)C)C(C)C [NCR169C17–38] (H-KSKKPLFKIWKCVENVCVLWYK-NH2; N-terminus assumed) | MIC | completely inhibited the hyphal growth | Synergism | half MIC | one-fourth of the MIC | shifted to the yeast form | reduced the abundance of the hyphal form | the cell number was drastically reduced, and the yeast form was also dominant | fungicidal | half MIC | Action [3, 13]: Synergism; reduction of MIC in the synergistic combination [3, 13]: 2 ×; reduction of MIC in the synergistic combination ([3]; NCR169C17–38 + NCR335C17–33 (3.12 μM), C. auris): 4 ×; concentration of drug A for the indicated action ([3]; checkerboard, C. auris, 72 h, 30 °C, drug A NCR169C17–38 + drug B NCR169C17–38ox): 3.12 µM; FICB [3, 15]: 0.125; concentration of drug B for the indicated action [3, 15]: 0.78 µM; Action ([3]; fluconazole + NCR169C17–38, C. auris): Additive; Minimal inhibitory concentration, Cp CBS 604 [11]: - |
| CC[C@H](C)[C@H](NC(=O)[C@@H]1CCCN1C(=O)[C@@H](NC(=O)[C@H](CS)NC(=O)[C@H](Cc1ccc(O)cc1)NC(=O)[C@H](CO)NC(=O)[C@H](CCCCN)NC(=O)[C@H](CCCNC(=N)N)NC(=O)[C@H](CS)NC(=O)[C@H](CCCNC(=N)N)NC(=O)[C@@H](NC(=O)[C@H](CC(N)=O)NC(=O)[C@H](C)NC(=O)[C@H](CCCNC(=N)N)NC(=O)[C@H](CCCNC(=N)N)NC(=O)[C@H](CC(C)C)NC(=O)[C@@H](N)CCCCN)C(C)C)C(C)C)C(N)=O [NCR335C17–33] (H-KLRRANVRCRKSYCVPI-NH2; N-terminus assumed) | half MIC | completely inhibited the hyphal growth | Synergism | half MIC | half MIC | shifted to the yeast form | reduced the abundance of the hyphal form | practically only the yeast form was present | fungicidal | MIC | concentration of drug B for the indicated action ([3]; checkerboard, C. auris, 72 h, 30 °C, drug A NCR169C17–38 + drug B NCR335C17–33): 3.12 µM; FICB ([3]; checkerboard, C. auris, 72 h, 30 °C, drug A NCR169C17–38 + drug B NCR335C17–33, * fictitious value, 25 µM used as MIC of NCR335C17–33): ≤ 0.25; Action ([3]; fluconazole + NCR335C17–33, C. auris): Indifferent; Minimal inhibitory concentration, Cau 0381 [12]: - |
